Test results taken from patent publication US20260265233A1, “BENZOTHIOPHENE DERIVATIVES AS RXFP1 AGONISTS” (BRISTOL-MYERS SQUIBB COMPANY, priority 2021, published 2026).

These compounds were tested against T1, human RXFP1 (Homo sapiens, UniProt Q9HBX9) (assay: hRXFP1 HEK293 cAMP assay (HTRF)). Conditions: HEK293 cells stably expressing human RXFP1; 30 min at rt; intracellular cAMP by HTRF.
T1 construct: expressed in transfected cells
T1 sequence (Q9HBX9 1-757): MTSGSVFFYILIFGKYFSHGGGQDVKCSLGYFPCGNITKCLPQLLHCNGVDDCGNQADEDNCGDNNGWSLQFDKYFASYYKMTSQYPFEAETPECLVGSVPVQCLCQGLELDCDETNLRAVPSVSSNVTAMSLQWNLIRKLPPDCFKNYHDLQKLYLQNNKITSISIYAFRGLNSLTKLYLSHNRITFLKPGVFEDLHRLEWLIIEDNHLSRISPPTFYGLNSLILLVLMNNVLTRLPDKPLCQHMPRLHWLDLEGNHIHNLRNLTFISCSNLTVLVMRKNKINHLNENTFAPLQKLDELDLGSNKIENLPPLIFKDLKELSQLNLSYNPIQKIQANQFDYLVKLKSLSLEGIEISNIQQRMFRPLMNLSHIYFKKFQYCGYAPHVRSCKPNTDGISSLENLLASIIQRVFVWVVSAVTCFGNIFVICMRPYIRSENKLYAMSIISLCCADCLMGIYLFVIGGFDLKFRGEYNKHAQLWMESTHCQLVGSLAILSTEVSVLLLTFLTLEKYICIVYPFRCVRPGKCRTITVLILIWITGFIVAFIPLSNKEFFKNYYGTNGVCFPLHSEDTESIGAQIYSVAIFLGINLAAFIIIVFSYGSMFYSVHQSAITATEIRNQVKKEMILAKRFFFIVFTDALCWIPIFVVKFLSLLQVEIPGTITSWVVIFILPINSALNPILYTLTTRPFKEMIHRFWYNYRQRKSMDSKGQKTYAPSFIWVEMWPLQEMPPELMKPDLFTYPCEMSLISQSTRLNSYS
Assay type: cell-based
Summary of the method: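 Agonism is measured as cAMP by HTRF, quantified from a standard curve via the 665/590 nm ratio and fitted with a four-parameter logistic equation. Compounds (0.010 nM to 50 μM final, 2% DMSO) were applied for 30 min at rt to human RXFP1-expressing HEK293 cells in assay buffer containing 0.5 mM IBMX.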
Compound `COc1ccc(C2CCCN(CC(C)C)C2)cc1C(=O)Nc1c(C(=O)Nc2ccc(F)c(C(F)(F)F)c2)sc2cc(C(F)(F)F)ccc12` (stereo not shown) [Example 89, N-(4-fluoro-3-(trifluoromethyl)phenyl)-3-(5-(1-isobutylpiperidin-3-yl)-2-methoxy-benzamido)-6-(trifluoromethyl) benzo[b] thiophene-2-carboxamide] has an EC50 of 2180 nM. In the case of `COc1ccc(C2CCCN(C(=O)CO)C2)cc1C(=O)Nc1c(C(=O)Nc2ccc(F)c(C(F)(F)F)c2)sc2cc(C(F)(F)F)ccc12` (single isomer, unassigned) [Example 103, N-[4-fluoro-3-(trifluoromethyl)phenyl]-3-{5-[1-(2-hydroxyacetyl)piperidin-3-yl]-2-methoxy-benzamido}-6-(trifluoromethyl)-1-benzothiophene-2-carboxamide], the EC50 is reported as 690 nM. `CCS(=O)(=O)Nc1cncc(-c2ccc(OC)c(C(=O)Nc3c(C(=O)Nc4ccc(F)c(C(F)(F)F)c4)sc4cc(C(F)(F)F)ccc34)c2)c1` [Example 116, 3-(5-(5-(ethylsulfonamido)pyridin-3-yl)-2-methoxy-benzamido)-N-(4-fluoro-3-(trifluoromethyl)phenyl)-6-(trifluoromethyl) benzo[b] thiophene-2-carboxamide] was tested, and the EC50 was 650 nM. Compound `COc1ccc(-c2cc([C@H](OC(=O)NC3CCC3)C(F)(F)F)ccc2F)cc1C(=O)Nc1c(C(=O)Nc2ccc(F)c(C(F)(F)F)c2)sc2cc(C(F)(F)F)ccc12` [Example 22, (S)-2,2,2-trifluoro-1-(6-fluoro-3′-((2-((4-fluoro-3-(trifluoromethyl)phenyl)carbamoyl)-6-(trifluoromethyl)benzo[b]thiophen-3-yl)carbamoyl)-4′-methoxy-[1, 1′-biphenyl]-3-yl) ethyl cyclobutylcarbamate] has an EC50 of 0.5 nM. Work on `COc1ccc(-c2cc(CNCC(C)C)ccc2F)cc1C(=O)Nc1c(C(=O)Nc2ccc(F)c(C(F)(F)F)c2)sc2cc(C(F)(F)F)ccc12` [Example 19, N-(4-fluoro-3-(trifluoromethyl)phenyl)-3-(2′-fluoro-5′-((isobutylamino)methyl)-4-methoxy-[1,1′-biphenyl]-3-carboxamido)-6-(trifluoromethyl) benzo[b]thiophene-2-carboxamide] yielded an EC50 of 1010 nM. For `COc1ccc(N2CCC(NCCS(C)(=O)=O)C2)cc1C(=O)Nc1c(C(=O)Nc2ccc(F)c(C(F)(F)F)c2)sc2cc(C(F)(F)F)ccc12` (stereo not shown) [Example 67, N-(4-fluoro-3-(trifluoromethyl)phenyl)-3-(2-methoxy-5-(3-((2-(methylsulfonyl)ethyl)amino)pyrrolidin-1-yl)benzamido)-6-(trifluoromethyl) benzo[b] thiophene-2-carboxamide], the EC50 was 1290 nM. Compound `COc1ccc(N2CCCC(NCC(N)=O)C2)cc1C(=O)Nc1c(C(=O)Nc2ccc(F)c(C(F)(F)F)c2)sc2cc(C(F)(F)F)ccc12` (stereo in doubt) [Example 210, (S)-3-(5-(3-((2-amino-2-oxoethyl)amino)piperidin-1-yl)-2-methoxy-benzamido)-N-(4-fluoro-3-(trifluoromethyl)phenyl)-6-(trifluoromethyl) benzo[b] thiophene-2-carboxamide] has an EC50 of 1930 nM. `COc1ccc(-c2cnc(C3(O)CCS(=O)(=O)C3)nc2)cc1C(=O)Nc1c(C(=O)Nc2ccc(F)c(C(F)(F)F)c2)sc2cc(C(F)(F)F)ccc12` (single isomer, unassigned) [Example 24, N-(4-fluoro-3-(trifluoromethyl)phenyl)-3-(5-(2-(3-hydroxy-1,1-dioxidotetrahydrothiophen-3-yl)pyrimidin-5-yl)-2-methoxybenzamido)-6-(trifluoromethyl)benzo[b]thiophene-2-carboxamide] gave an EC50 of 3360 nM. `COc1ccc(C2CC2C(=O)O)cc1C(=O)Nc1c(C(=O)Nc2ccc(F)c(C(F)(F)F)c2)sc2cc(C(F)(F)F)ccc12` (single isomer, unassigned) [Example 47, 2-(3-((2-((4-fluoro-3-(trifluoromethyl)phenyl)carbamoyl)-6-(trifluoromethyl)benzo[b]thiophen-3-yl)carbamoyl)-4-methoxyphenyl) cyclopropane-1-carboxylic acid] showed an EC50 of 1060 nM. With `COc1ccc(-c2noc(C(C)(C)O)n2)cc1C(=O)Nc1c(C(=O)Nc2ccc(F)c(C(F)(F)F)c2)sc2cc(C(F)(F)F)ccc12` [Example 59, N-(4-fluoro-3-(trifluoromethyl)phenyl)-3-(5-(5-(2-hydroxypropan-2-yl)-1,2,4-oxadiazol-3-yl)-2-methoxybenzamido)-6-(trifluoromethyl) benzo[b]thiophene-2-carboxamide] the EC50 was 216 nM. `COc1cc(F)c(C(=O)N2CC(C(C)(C)O)C2)cc1C(=O)Nc1c(C(=O)Nc2ccc(F)c(C(F)(F)F)c2)sc2cc(C(F)(F)F)ccc12` [Example 182, N-(4-fluoro-3-(trifluoromethyl)phenyl)-3-(4-fluoro-5-(3-(2-hydroxypropan-2-yl)azetidine-1-carbonyl)-2-methoxy-benzamido)-6-(trifluoromethyl) benzo[b] thiophene-2-carboxamide] gave an EC50 of 357 nM. `COc1ccc(C2=NOC3(CCN(C(=O)C(C)(C)O)CC3)C2)cc1C(=O)Nc1c(C(=O)Nc2ccc(F)c(C(F)(F)F)c2)sc2cc(C(F)(F)F)ccc12` [Example 270, N-(4-fluoro-3-(trifluoromethyl)phenyl)-3-(5-(8-(2-hydroxy-2-methylpropanoyl)-1-oxa-2,8-diazaspiro[4.5]dec-2-en-3-yl)-2-methoxy-benzamido)-6-(trifluoromethyl) benzo[b] thiophene-2-carboxamide] showed an EC50 of 532 nM. For `COc1ccc(C2=NOC3(C2)CN(C(=O)C(C)(C)CO)C3)cc1C(=O)Nc1c(C(=O)Nc2ccc(F)c(C(F)(F)F)c2)sc2cc(C(F)(F)F)ccc12` [Example 283, N-(4-fluoro-3-(trifluoromethyl)phenyl)-3-(5-(2-(3-hydroxy-2,2-dimethyl-propanoyl)-5-oxa-2,6-diazaspiro[3.4]oct-6-en-7-yl)-2-methoxy-benzamido)-6-(trifluoromethyl) benzo[b] thiophene-2-carboxamide], the EC50 was 1120 nM. With `COc1ccc(C2CC2C(C)(C)O)cc1C(=O)Nc1c(C(=O)Nc2ccc(F)c(C(F)(F)F)c2)sc2cc(C(F)(F)F)ccc12` (stereo not shown) [Example 159, N-(4-fluoro-3-(trifluoromethyl)phenyl)-3-(5-(2-(2-hydroxypropan-2-yl)cyclopropyl)-2-methoxy-benzamido)-6-(trifluoromethyl) benzo[b] thiophene-2-carboxamide] the EC50 was 199 nM. In the case of `COc1ccc(C2CCCN(CCS(C)(=O)=O)C2)cc1C(=O)Nc1c(C(=O)Nc2ccc(F)c(C(F)(F)F)c2)sc2cc(C(F)(F)F)ccc12` (single isomer, unassigned) [Example 86, N-(4-fluoro-3-(trifluoromethyl)phenyl)-3-(2-methoxy-5-(1-(2-(methylsulfonyl)ethyl)piperidin-3-yl)benzamido)-6-(trifluoromethyl) benzo[b] thiophene-2-carboxamide], the EC50 is reported as 1150 nM. With `COc1ccc(C#CCO)cc1C(=O)Nc1c(C(=O)Nc2ccc(F)c(C(F)(F)F)c2)sc2cc(C(F)(F)F)ccc12` [Example 42, N-(4-fluoro-3-(trifluoromethyl)phenyl)-3-(5-(3-hydroxyprop-1-yn-1-yl)-2-methoxybenzamido)-6-(trifluoromethyl)benzo[b]thiophene-2-carboxamide] the EC50 was 467 nM. Compound `COc1ccc(C2CC2C(=O)N2CC(C(C)(C)O)C2)cc1C(=O)Nc1c(C(=O)Nc2ccc(F)c(C(F)(F)F)c2)sc2cc(C(F)(F)F)ccc12` (stereo not shown) [Example 165, N-[4-fluoro-3-(trifluoromethyl)phenyl]-3-(5-{2-[3-(2-hydroxypropan-2-yl)azetidine-1-carbonyl]cyclopropyl}-2-methoxy-benzamido)-6-(trifluoromethyl)-1-benzothiophene-2-carboxamide] has an EC50 of 3050 nM. `COc1ccc(-c2noc(C(C)(C)CO)n2)cc1C(=O)Nc1c(C(=O)Nc2ccc(F)c(C(F)(F)F)c2)sc2cc(C(F)(F)F)ccc12` [Example 274, N-(4-fluoro-3-(trifluoromethyl)phenyl)-3-(5-(5-(1-hydroxy-2-methylpropan-2-yl)-1,2,4-oxadiazol-3-yl)-2-methoxy-benzamido)-6-(trifluoromethyl) benzo[b] thiophene-2-carboxamide] gave an EC50 of 278 nM. With `COc1ccc(C2CC2C(=O)N2CC(S(C)(=O)=O)C2)cc1C(=O)Nc1c(C(=O)Nc2ccc(F)c(C(F)(F)F)c2)sc2cc(C(F)(F)F)ccc12` (single isomer, unassigned) [Example 164, N-[4-fluoro-3-(trifluoromethyl)phenyl]-3-{5-[2-(3-methane-sulfonylazetidine-1-carbonyl)cyclopropyl]-2-methoxy-benzamido}-6-(trifluoromethyl)-1-benzothiophene-2-carboxamide] the EC50 was 865 nM.
